According to PubChem BioAssay (NCI):
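48-hour exposure; five concentrations; linearly interpolated endpoints. The concentration for 50% growth inhibition is given as GI50. TGI: concentration producing complete growth inhibition.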

Experiments:
Test in all cases: growth of human tumour cells (NCI), 48 h
786-0 renal = tested on: 786-0 renal
CCRF-CEM leukemia = tested on: CCRF-CEM leukemia
DU-145 prostate = tested on: DU-145 prostate
EKVX NSCLC = tested on: EKVX NSCLC
HL-60(TB) leukemia = tested on: HL-60(TB) leukemia
OVCAR-4 ovarian = tested on: OVCAR-4 ovarian
OVCAR-8 ovarian = tested on: OVCAR-8 ovarian
SF-268 CNS = tested on: SF-268 CNS
SF-295 CNS = tested on: SF-295 CNS
SF-539 CNS = tested on: SF-539 CNS

COc1ccc2c(c1)OCC1c3cc(OC)c4ccccc4c3OC21 (stereo not given)
GI50 (786-0 renal): 26.1 µM
TGI (786-0 renal): > 100 µM
GI50 (CCRF-CEM leukemia): 16.2 µM
TGI (CCRF-CEM leukemia): > 100 µM
GI50 (DU-145 prostate): 18.8 µM
TGI (DU-145 prostate): > 100 µM
GI50 (EKVX NSCLC): 25.1 µM
TGI (EKVX NSCLC): > 100 µM
GI50 (HL-60(TB) leukemia): 2.61 µM
TGI (HL-60(TB) leukemia): 9.61 µM
GI50 (OVCAR-4 ovarian): 16.5 µM
TGI (OVCAR-4 ovarian): > 100 µM
GI50 (OVCAR-8 ovarian): 44.4 µM
TGI (OVCAR-8 ovarian): > 100 µM
GI50 (SF-268 CNS): 12.1 µM
TGI (SF-268 CNS): > 100 µM
GI50 (SF-295 CNS): 2 µM
TGI (SF-295 CNS): 6.91 µM
GI50 (SF-539 CNS): 21.3 µM
TGI (SF-539 CNS): > 100 µM

CCOC(=O)c1c(-c2ccccc2)n2c(=O)cc(C)c3c(O)c(O)cc1c32
GI50 (786-0 renal): 11.7 µM
TGI (786-0 renal): 53.7 µM
GI50 (CCRF-CEM leukemia): 1.59 µM
TGI (CCRF-CEM leukemia): 13.9 µM
GI50 (DU-145 prostate): 10.5 µM
TGI (DU-145 prostate): 23.9 µM
GI50 (EKVX NSCLC): 8.73 µM
TGI (EKVX NSCLC): 24.3 µM
GI50 (HL-60(TB) leukemia): 3.34 µM
TGI (HL-60(TB) leukemia): 10.8 µM
GI50 (OVCAR-4 ovarian): 2.46 µM
TGI (OVCAR-4 ovarian): 11.4 µM
GI50 (OVCAR-8 ovarian): 4.23 µM
TGI (OVCAR-8 ovarian): 22.1 µM
GI50 (SF-268 CNS): 3.35 µM
TGI (SF-268 CNS): 20.2 µM
GI50 (SF-295 CNS): 6.75 µM
TGI (SF-295 CNS): > 100 µM
GI50 (SF-539 CNS): 4.56 µM
TGI (SF-539 CNS): 25.1 µM

COc1cc2c(Nc3ccc(-c4ccc(N)cc4)cc3)ncnc2c(OC)c1OC
GI50 (786-0 renal): 3.72 µM
TGI (786-0 renal): > 100 µM
GI50 (CCRF-CEM leukemia): 6.09 µM
TGI (CCRF-CEM leukemia): > 100 µM
GI50 (DU-145 prostate): 18.4 µM
TGI (DU-145 prostate): > 100 µM
GI50 (EKVX NSCLC): 5.4 µM
TGI (EKVX NSCLC): > 100 µM
GI50 (HL-60(TB) leukemia): 2.54 µM
TGI (HL-60(TB) leukemia): 20.4 µM
GI50 (OVCAR-4 ovarian): 6.01 µM
TGI (OVCAR-4 ovarian): > 100 µM
GI50 (OVCAR-8 ovarian): 5.46 µM
TGI (OVCAR-8 ovarian): 56.9 µM
GI50 (SF-268 CNS): 19.1 µM
TGI (SF-268 CNS): > 100 µM
GI50 (SF-295 CNS): 1.5 µM
TGI (SF-295 CNS): 7.52 µM
GI50 (SF-539 CNS): 2.42 µM
TGI (SF-539 CNS): > 28.7 µM

COc1cccc(C(=O)NNc2nc(Cl)nc(N3CCN(C(c4ccccc4)c4ccccc4)CC3)n2)c1
GI50 (786-0 renal): 3.4 µM
TGI (786-0 renal): 13.1 µM
GI50 (CCRF-CEM leukemia): 2.23 µM
TGI (CCRF-CEM leukemia): 30.4 µM
GI50 (DU-145 prostate): 4.3 µM
TGI (DU-145 prostate): 15.3 µM
GI50 (EKVX NSCLC): 5.76 µM
TGI (EKVX NSCLC): 20 µM
GI50 (HL-60(TB) leukemia): 6.29 µM
TGI (HL-60(TB) leukemia): 43.9 µM
GI50 (OVCAR-4 ovarian): 1.73 µM
TGI (OVCAR-4 ovarian): 3.44 µM
GI50 (OVCAR-8 ovarian): 2.02 µM
TGI (OVCAR-8 ovarian): 4.53 µM
GI50 (SF-268 CNS): 2.07 µM
TGI (SF-268 CNS): 4.73 µM
GI50 (SF-295 CNS): 16.8 µM
TGI (SF-295 CNS): 30.4 µM
GI50 (SF-539 CNS): 2.08 µM
TGI (SF-539 CNS): 4.3 µM

CCN1C(=O)/C(=c2\sc3n(c2=O)C2C(NN=3)N(CC)C(=O)N2CC)c2ccccc21 (stereo not given)
GI50 (786-0 renal): 0.663 µM
TGI (786-0 renal): 16.9 µM
GI50 (CCRF-CEM leukemia): 0.433 µM
TGI (CCRF-CEM leukemia): > 100 µM
GI50 (DU-145 prostate): 0.582 µM
TGI (DU-145 prostate): 29.2 µM
GI50 (EKVX NSCLC): 0.851 µM
TGI (EKVX NSCLC): > 100 µM
GI50 (HL-60(TB) leukemia): 0.303 µM
TGI (HL-60(TB) leukemia): 1.01 µM
GI50 (OVCAR-4 ovarian): 5.48 µM
TGI (OVCAR-4 ovarian): > 100 µM
GI50 (OVCAR-8 ovarian): 0.665 µM
TGI (OVCAR-8 ovarian): > 100 µM
GI50 (SF-268 CNS): 2.57 µM
TGI (SF-268 CNS): > 100 µM
GI50 (SF-295 CNS): 0.377 µM
TGI (SF-295 CNS): 6.64 µM
GI50 (SF-539 CNS): 0.271 µM
TGI (SF-539 CNS): 0.937 µM

Cn1cc(-c2csc(-c3ccccc3)n2)c2cccnc21
GI50 (786-0 renal): 14.4 µM
TGI (786-0 renal): 28.2 µM
GI50 (CCRF-CEM leukemia): 22.8 µM
TGI (CCRF-CEM leukemia): > 100 µM
GI50 (DU-145 prostate): 15 µM
TGI (DU-145 prostate): 29.3 µM
GI50 (EKVX NSCLC): 5.2 µM
TGI (EKVX NSCLC): 35.2 µM
GI50 (HL-60(TB) leukemia): 9.4 µM
TGI (HL-60(TB) leukemia): 34 µM
GI50 (OVCAR-4 ovarian): 23.3 µM
TGI (OVCAR-4 ovarian): 71.4 µM
GI50 (OVCAR-8 ovarian): 20.3 µM
TGI (OVCAR-8 ovarian): 52.4 µM
GI50 (SF-268 CNS): 16.8 µM
TGI (SF-268 CNS): 43 µM
GI50 (SF-295 CNS): 15 µM
TGI (SF-295 CNS): 33.7 µM
GI50 (SF-539 CNS): 14.2 µM
TGI (SF-539 CNS): 28.3 µM
